This is an account of results in patent US20160331775A1, “E-SELECTIN INHIBITION WORKS IN COMBINATION WITH LOW-MOLECULAR WEIGHT HEPARIN TO DECREASE VENOUS THROMBOSIS AND BLEEDING RISK” (THE REGENTS OF THE UNIVERSITY OF MICHIGAN, priority 2015, published 2016).

This series can be described thus: tail vein bleeding time. Format: in vivo, mouse. The note with it: GMI-1271 alone, 20/kg IP BID; non-treated controls 53.8±7.5; not significantly elevated.

`CC[C@H]1C[C@@H](C(=O)NCCNC(=O)CCOCCOCCOCCOCCOCCOCCOCCOCCOCCOCCOCCOC)C[C@@H](O[C@@H]2O[C@H](CO)[C@H](O)[C@H](O[C@@H](CC3CCCCC3)C(=O)[O-])[C@H]2NC(C)=O)[C@@H]1O[C@@H]1O[C@@H](C)[C@@H](O)[C@@H](O)[C@@H]1O.[Na+]` [GMI-1271]: the tail bleeding time came out at 67.00 ± 44 s.
